# Target: human RIP1 kinase domain (2-375) (Homo sapiens (Human), UniProt Q13546)
# Test: biochemical
# Type: biochemical
# Conditions: Table 1; apparent Ki (Morrison tight-binding fit); 50 nM RIP1 kinase domain, 50 uM ATP, 2 hours incubation; read-out: RIP1 Ki
# Summary of the method: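 50 nM purified kinase domain from baculovirus-infected insect cells, incubated 2 h with compound in 50 mM Hepes pH 7.5, 30 mM MgCl2, 1 mM DTT, 50 uM ATP, 0.002% Brij-35, 0.5% DMSO. ADP formation read by Transcreener FP at 633 nm excitation. Ki^app fitted with the Morrison tight-binding equation.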
# human RIP1 kinase domain (2-375), sequence (Q13546 2-375): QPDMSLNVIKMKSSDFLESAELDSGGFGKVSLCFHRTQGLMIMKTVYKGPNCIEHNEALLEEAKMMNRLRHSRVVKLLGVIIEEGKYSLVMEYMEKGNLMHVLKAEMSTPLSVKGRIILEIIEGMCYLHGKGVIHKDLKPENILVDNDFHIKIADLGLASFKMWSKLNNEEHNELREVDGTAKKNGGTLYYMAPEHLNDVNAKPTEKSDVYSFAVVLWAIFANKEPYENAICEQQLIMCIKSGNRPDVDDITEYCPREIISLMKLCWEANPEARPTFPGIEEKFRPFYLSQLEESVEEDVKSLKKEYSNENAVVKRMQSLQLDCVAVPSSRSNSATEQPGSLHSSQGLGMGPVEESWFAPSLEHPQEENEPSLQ
row,Structure (SMILES),Ki
1,"CN1C(=O)[C@@H](NC(=O)c2nnc(Cc3ccccc3)[nH]2)CCn2nc(C(F)(F)F)cc21 [Example 80, (S)-5-benzyl-N-(4-methyl-5-oxo-2-(trifluoromethyl)-5,6,7,8-tetrahydro-4H-pyrazolo[1,5-a][1,3]diazepin-6-yl)-4H-1,2,4-triazole-3-carboxamide]",64 nM
2,"CN1C(=O)[C@@H](NC(=O)c2ccc3c(n2)CCCC3)COc2ccccc21 [Example 51, (S)-N-(5-methyl-4-oxo-2,3,4.5-tetrahydrobenzo[b][1,4]oxazepin-3-yl)-5,6,7,8-tetrahydroquinoline-2-carboxamide]",8900 nM

# Same assay, conditions: Table 5; apparent Ki (Morrison tight-binding fit); 50 nM RIP1 kinase domain, 50 uM ATP, 2 hours incubation; read-out: Ki
row,Ki,Structure (SMILES)
1,448 nM,"CN1C(=O)[C@@H](NC(=O)c2cc3c(Br)cccc3cn2)CCn2nccc21 (racemic) [Example 700, 5-bromo-N-[rac-(6S)-4-methyl-5-oxo-7,8-dihydro-6H-pyrazolo[1,5-a][1,3]diazepin-6-yl]isoquinoline-3-carboxamide]"
2,95 nM,"CCn1ccc(-c2cc3n(n2)CCC(NC(=O)c2ncn(Cc4ccccc4)n2)C(=O)N3C)n1 (racemic) [Example 704, 1-benzyl-N-[2-(1-ethylpyrazol-3-yl)-4-methyl-5-oxo-7,8-dihydro-6H-pyrazolo[1,5-a][1,3]diazepin-6-yl]-1,2,4-triazole-3-carboxamide]"
3,598 nM,"COCCNCc1cc2n(n1)CCC(NC(=O)c1ncn(Cc3ccccc3)n1)C(=O)N2C (single isomer, unassigned) [Example 780, 1-benzyl-N-(2-(((2-methoxyethyl)amino)methyl)-4-methyl-5-oxo-5,6,7,8-tetrahydro-4H-pyrazolo[1,5-a][1,3]diazepin-6-yl)-1H-1,2,4-triazole-3-carboxamide]"

# Same assay, conditions: human RIP1 kinase domain (2-375), 50 uM ATP, 2 hours incubation, Transcreener ADP assay; read-out: RIP1 Ki
row,Ki,Structure (SMILES)
1,131 nM,"CN1C(=O)[C@@H](NC(=O)c2n[nH]c3c2CC(c2ccc(F)c(F)c2)OC3)COc2ccccc21 (stereo partly drawn) [Example 206, 5-(3,4-difluorophenyl)-N—((S)-5-methyl-4-oxo-2,3,4,5-tetrahydrobenzo[b][1,4]oxazepin-3-yl)-1,4,5,7-tetrahydropyrano[3,4-c]pyrazole-3-carboxamide]"
2,12.3 nM,"CC(C)n1ncc2cnc(C(=O)N[C@H]3COc4ccccc4N(C)C3=O)cc21 [Example 213, (S)-1-isopropyl-N-(5-methyl-4-oxo-2,3,4,5-tetrahydrobenzo[b][1,4]oxazepin-3-yl)-1H-pyrazolo[4,3-c]pyridine-6-carboxamide]"
3,262 nM,"CN1C(=O)C(NC(=O)c2nnc(Cc3ccccc3)[nH]2)CCCn2nc(C3CC3)cc21 (stereo not shown) [Example 105, 5-benzyl-N-(2-cyclopropyl-4-methyl-5-oxo-4,5,6,7,8,9-hexahydropyrazolo[1,5-a][1,3]diazocin-6-yl)-4H-1,2,4-triazole-3-carboxamide]"
4,201 nM,"CN1C(=O)[C@@H](NC(=O)c2nnn3c2CC(c2ccccc2)C3)COc2ccccc21 (stereo partly drawn) [Example 119, N—((S)-5-methyl-4-oxo-2,3,4,5-tetrahydrobenzo[b][1,4]oxazepin-3-yl)-5-phenyl-5,6-dihydro-4H-pyrrolo[1,2-c][1,2,3]triazole-3-carboxamide]"
5,139 nM,"CN1C(=O)[C@@H](NC(=O)c2cn(Cc3ccccc3)nn2)CCn2nc(C3CC3)cc21 (single isomer, unassigned) [Example 112]"

# Same assay, conditions: human RIP1 kinase domain (2-375), Transcreener ADP assay, 50 uM ATP, 2 hours incubation; read-out: RIP1 Ki
row,Ki,Structure (SMILES)
1,695 nM,"Cc1cc2n(n1)CCC(NC(=O)c1ncn(CC3CCC(F)(F)CC3)n1)C(=O)N2C (stereo not shown) [Example 246, 1-((4,4-difluorocyclohexyl)methyl)-N-(2,4-dimethyl-5-oxo-5,6,7,8-tetrahydro-4H-pyrazolo[1,5-a][1,3]diazepin-6-yl)-1H-1,2,4-triazole-3-carboxamide]"
2,172 nM,"CN1C(=O)[C@@H](NC(=O)c2ncn(CC3(C)CC3)n2)CCn2nc(C3CC3)cc21 [Example 308, (S)—N-(2-cyclopropyl-4-methyl-5-oxo-5,6,7,8-tetrahydro-4H-pyrazolo[1,5-a][1,3]diazepin-6-yl)-1-((1-methylcyclopropyl)methyl)-1H-1,2,4-triazole-3-carboxamide]"
3,516 nM,"Cc1ccc(Cn2cnc(C(=O)NC3CCn4nc(C5CC5)cc4N(C)C3=O)n2)cn1 (stereo not shown) [Example 278, N-(2-cyclopropyl-4-methyl-5-oxo-5,6,7,8-tetrahydro-4H-pyrazolo[1,5-a][1,3]diazepin-6-yl)-1-((6-methylpyridin-3-yl)methyl)-1H-1,2,4-triazole-3-carboxamide]"
4,50.9 nM,"Cc1nn2c(c1C)N(C)C(=O)[C@@H](NC(=O)c1ncn(Cc3ccc(F)cc3F)n1)CC2 [Example 280, (S)-1-(2,4-difluorobenzyl)-N-(2,3,4-trimethyl-5-oxo-5,6,7,8-tetrahydro-4H-pyrazolo[1,5-a][1,3]diazepin-6-yl)-1H-1,2,4-triazole-3-carboxamide]"

row,Structure (SMILES),Ki
1,"CN1C(=O)[C@@H](NC(=O)c2n[nH]c3ncc(C(F)(F)F)cc23)COc2ccccc21 [Example 279, (S)—N-(5-methyl-4-oxo-2,3,4,5-tetrahydrobenzo[b][1,4]oxazepin-3-yl)-5-(trifluoromethyl)-1H-pyrazolo[3,4-b]pyridine-3-carboxamide]",98.1 nM

# Same assay, conditions: tight-binding apparent inhibition constant; human RIP1 kinase domain (2-375) 50 nM, 50 uM ATP, 2 hours; read-out: Ki
row,Ki,Structure (SMILES)
1,834 nM,"CN1C(=O)[C@@H](NC(=O)c2nc3n(n2)[C@H](c2c(F)cccc2F)CCC3)CCn2nccc21 (racemic) [Example 400, (S)-5-(2,6-difluorophenyl)-N—((S)-4-methyl-5-oxo-5,6,7,8-tetrahydro-4H-pyrazolo[1,5-a][1,3]diazepin-6-yl)-5,6,7,8-tetrahydro-[1,2,4]triazolo[1,5-a]pyridine-2-carboxamide]"
2,511 nM,"CN1C(=O)[C@@H](NC(=O)c2nc3n(n2)C(c2nccn2C)CC3)COc2ccccc21 (stereo partly drawn) [Example 361, 5-(1-methylimidazol-2-yl)-N-[(3S)-5-methyl-4-oxo-2,3-dihydro-1,5-benzoxazepin-3-yl]-6,7-dihydro-5H-pyrrolo[1,2-b][1,2,4]triazole-2-carboxamide]"
3,9.29 nM,"CCC[C@@H]1CCCc2nc(C(=O)N[C@H]3COc4cc(C)cc(F)c4NC3=O)nn21 (single isomer, unassigned) [Example 441]"
4,130 nM,"Cc1cn2c(n1)N(C)C(=O)C(NC(=O)c1ncn(Cc3ccccc3)n1)CC2 (stereo not shown) [Example 535, 1-benzyl-N-(2,9-dimethyl-8-oxo-6,7,8,9-tetrahydro-5H-imidazo[1,2-a][1,3]diazepin-7-yl)-1H-1,2,4-triazole-3-carboxamide]"
5,20.3 nM,"CC(C)[C@@H]1CCCc2nc(C(=O)N[C@H]3CCc4cc(F)cc(F)c4NC3=O)nn21 (single isomer, unassigned) [Example 436]"
6,3000 nM,"CN1C(=O)[C@@H](NC(=O)c2nc3n(n2)C(C2CCOC2)CCC3)CCn2nccc21 (stereo partly drawn) [Example 390, N—((S)-4-methyl-5-oxo-5,6,7,8-tetrahydro-4H-pyrazolo[1,5-a][1,3]diazepin-6-yl)-5-(tetra hydrofuran-3-yl)-5,6,7,8-tetrahydro-[1,2,4]triazolo[1,5-a]pyridine-2-carboxamide]"
7,450 nM,"CN1C(=O)[C@@H](NC(=O)c2ncn(Cc3ccccc3)n2)CC[C@@H]2[C@H]1C2(F)F (single isomer, unassigned) [Example 364]"
8,33 nM,"Cc1nc(C(=O)N[C@H]2CCn3nccc3N(C)C2=O)nn1Cc1ccccc1 [Example 462, (S)-1-Benzyl-5-methyl-N-(4-methyl-5-oxo-5,6,7,8-tetrahydro-4H-pyrazolo[1,5-a][1,3]diazepin-6-yl)-1H-1,2,4-triazole-3-carboxamide]"
9,290 nM,CN1C(=O)[C@@H](NC(=O)c2ncn(CC3CCCOC3)n2)CCn2nc(C3CC3)cc21 (stereo partly shown) [Example 478]
10,61 nM,"CN1C(=O)[C@@H](NC(=O)c2ncn(Cc3ncccc3Cl)n2)CCn2nccc21 (racemic) [Example 656, 1-[(3-chloro-2-pyridyl)methyl]-N-[rac-(6S)-4-methyl-5-oxo-7,8-dihydro-6H-pyrazolo[1,5-a][1,3]diazepin-6-yl]-1,2,4-triazole-3-carboxamide]"
11,10.8 nM,"CN1C(=O)[C@@H](NC(=O)c2nc3n(n2)C(C2CCCCC2)CCC3)COc2ccccc21 (stereo partly drawn) [Example 377, 5-cyclohexyl-N—((S)-5-methyl-4-oxo-2,3,4,5-tetrahydrobenzo[b][1,4]oxazepin-3-yl)-5,6,7,8-tetrahydro-[1,2,4]triazolo[1,5-a]pyridine-2-carboxamide]"
12,960 nM,"Cc1cc2n(n1)CC[C@H](NC(=O)c1ncc3c(n1)C1(CCOC1)OC3)C(=O)N2C (stereo partly drawn) [Example 551, N-[(6S)-2,4-dimethyl-5-oxo-7,8-dihydro-6H-pyrazolo[1,5-a][1,3]diazepin-6-yl]spiro[5H-furo[3,4-d]pyrimidine-7,3′-tetrahydrofuran]-2-carboxamide]"
13,7300 nM,"Cc1cc2n(n1)CC[C@H](NC(=O)c1nc3n(n1)CCC31CCOCC1)C(=O)N2C [Example 635, N-[(6S)-2,4-dimethyl-5-oxo-7,8-dihydro-6H-pyrazolo[1,5-a][1,3]diazepin-6-yl]spiro[5,6-dihydropyrrolo[1,2-b][1,2,4]triazole-7,4′-tetrahydropyran]-2-carboxamide]"
14,24 nM,O=C(N[C@H]1CCc2cc(F)cc(F)c2NC1=O)c1ncc2c(n1)C1(CCC1)OC2 [Example 618]
15,4.3 nM,"CN1C(=O)[C@@H](NC(=O)c2nc3cccc(-c4ccccc4)n3n2)COc2ccccc21 [Example 373, (S)—N-(5-methyl-4-oxo-2,3,4,5-tetrahydrobenzo[b][1,4]oxazepin-3-yl)-5-phenyl-[1,2,4]triazolo[1,5-a]pyridine-2-carboxamide]"
16,3 nM,"CC(C)c1cccc2nc(C(=O)N[C@H]3COc4cc(F)cc(F)c4NC3=O)nn12 [Example 424, (S)—N-(6,8-difluoro-4-oxo-2,3,4,5-tetrahydrobenzo[b][1,4]oxazepin-3-yl)-5-isopropyl-[1,2,4]triazolo[1,5-a]pyridine-2-carboxamide]"

# Reference: patent US10988459B2 (priority 2015, dated 2021)
